Measured values from PubChem BioAssay AID179 (DTP/NCI, 2004).
Active and inactive are the calls of the source.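 The calls were made as follows: active = compounds giving half or more protection of infected cells from virus-caused growth loss, again on retest; inactive = the rest.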

Test system: CEM cells HIV-1 protection, formazan growth assay
Assay: NCI AIDS Antiviral Assay
Conditions: for IC50: measured here: growth of uninfected CEM cells
Method in brief: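 Human CEM cells, uninfected and HIV-1-infected, received five drug concentrations, and growth was read by soluble formazan assay. Compounds giving at least 50% protection were retested; reproducible 100% protection defined confirmed active.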

## C1N2CN3CN1CN(C2)C3
  EC50: > 200 µM
  IC50: 151 µM

## NS(=O)(=O)c1ccc(Nc2c3ccccc3nc3c(C(=O)N4CCN(CCO)CC4)ccc(Cl)c23)cc1
  EC50: > 49 µM
  IC50: > 49 µM

## CC(O)C(N=Cc1ccccc1[O-])C(=O)[O-].CC(O)C(N=Cc1ccccc1[O-])C(=O)[O-].[Co+2] (configuration not stated)
  EC50: > 363 µM
  IC50: 64.6 µM

## O=c1[nH]c2cc(Cl)ccc2nc1/C(=N\O)C(O)c1cccc([N+](=O)[O-])c1 (configuration not stated)
  EC50: > 661 µM
  IC50: 646 µM

## CCCCCCCCC1=C(OC)C(=O)c2cccnc2C1=O
  outcome: inactive

## Cc1ccc2nc(NC(=O)C(=O)CC(=O)c3cccc4ccccc34)sc2c1
  EC50: > 33.9 µM
  IC50: > 33.9 µM

## COc1cc(C(c2cc(OC)c(OC)c(OC)c2)N2C(=O)CCC2C(=O)O)cc(OC)c1OC (configuration not stated)
  EC50: > 200 µM
  IC50: > 200 µM

## COc1ccc(N2C(=O)[C@@H](N=[N+]=[N-])[C@@H]2[C@H]2COC(C)(C)O2)cc1
  EC50: > 407 µM
  IC50: > 407 µM

## O=CC(O)C(O)C(O)C(O)CON1C[C@@H](O)C(O)[C@@H](O)C1 (some centres not stated)
  EC50: > 200 µM
  IC50: > 200 µM

## C=C(CCC/C(C)=C/C=C/[C@]1(C)CCCc2ccoc21)CC(=O)O
  EC50: 16.2 µM
  IC50: > 200 µM

## O=S(=O)(O)CCS
  EC50: > 200 µM
  IC50: > 200 µM

## CC(=O)Nc1cccc2cc(S(=O)(=O)O)ccc12
  EC50: > 200 µM
  IC50: > 200 µM

## NNC(=O)c1ccccc1NC(=O)/C(=C/c1ccccc1O)NC(=O)c1ccccc1
  EC50: > 200 µM
  IC50: > 200 µM

## Nc1nccc2c([N+](=O)[O-])cccc12
  outcome: inactive

## O=C(C=Nc1ccccc1C(=O)[O-])c1cccs1.O=C(C=Nc1ccccc1C(=O)[O-])c1cccs1.[Co+2]
  outcome: inactive

## O=C(Nc1ccc(Br)cc1)c1cc(Br)ccc1O
  EC50: > 200 µM
  IC50: 4.37 µM

## O=C1CCCSC(=O)N1Cc1ccccc1
  EC50: > 200 µM
  IC50: > 200 µM

## Cc1ccc2[nH]c3nc4cc(C)c(C)cc4nc3c2c1
  EC50: > 7.24 µM
  IC50: > 7.24 µM

## Cc1ccc2c(c1)[nH]c(=S)n2/C=C1\C(=O)Oc2ccccc2C1=O
  EC50: > 200 µM
  IC50: 36.3 µM

## CC(C)c1cc2c(cc1S(=O)(=O)O)[C@@]1(C)CCC[C@@](C)(C(=O)O)C1CC2 (some centres not stated)
  EC50: > 200 µM
  IC50: > 200 µM

## COC(=O)C1(OC(=O)Sc2ccccc2)CCN(C)CC1
  EC50: > 200 µM
  IC50: 26.3 µM

## CN(C)c1ccc(/C=N\NC(=O)c2ccccc2Nc2ccccc2C(=O)N/N=C/c2ccc(N(C)C)cc2)cc1
  EC50: 66.1 µM
  IC50: > 200 µM

## COc1ccccc1C12OC(=O)C1(C)Oc1ccccc1C2=O (configuration not stated)
  outcome: inactive

## CC(C)C[C@H]1[C@@H](OCc2ccccc2)COS(=O)(=O)N1[C@H](C)c1ccccc1
  EC50: > 200 µM
  IC50: 11.2 µM

## CCCCN1C(=O)N(c2ccc(OCC)cc2)C2N(CCCC)C1C(C)(C)C2(C)C (configuration not stated)
  EC50: > 21.9 µM
  IC50: > 21.9 µM

## CC(=O)OCc1nnn2c1CCC2
  outcome: inactive

## C=C1CC(CNc2cc(Cl)nc(N)n2)C1
  EC50: > 200 µM
  IC50: 55 µM

## NC1C2C(CC(=O)O)OCC=C3CN4CCC1(C(=O)C(=O)O)C4CC32 (configuration not stated)
  EC50: > 28.8 µM
  IC50: > 28.8 µM

## CC1CC/C(=C\c2ccc(F)cc2)C(=O)/C1=C/c1ccc(F)cc1 (configuration not stated)
  EC50: > 19.5 µM
  IC50: 9.33 µM

## Cc1ccc(-c2csc(=Nc3ccccc3)n2NC(=O)c2ccncc2)cc1
  EC50: > 200 µM
  IC50: 22.9 µM

## COC(=O)c1c(C(=O)OC)c2ccccn2c1-c1cc(C)cc2c1C(=O)C=CC2=O
  EC50: > 200 µM
  IC50: 0.468 µM

## C[C@@H](NC(=O)[C@@H]1C[C@]1(C)CO)c1cccc2ccccc12
  EC50: > 200 µM
  IC50: > 200 µM

## CN(C)c1ccc(/C=C/c2sc3ccccc3[n+]2C)cc1
  EC50: > 47.9 µM
  IC50: 0.575 µM

## Cn1cccc1/C=N/N=C(/N)NO
  outcome: inactive

## O=C(N/C(=C\c1cc(Cl)ccc1Cl)c1nc2ccccc2[nH]1)c1ccccc1
  outcome: inactive

## NC(=S)NNC(=O)CCC(=O)Nc1ccccc1Cl
  outcome: inactive

## COC(=O)c1cc(C(c2cc(C(=O)OC)c(O)cc2C)C(Cl)Cl)c(C)cc1O
  EC50: > 91.2 µM
  IC50: 6.46 µM

## O=c1oc2cc(O)ccc2c2oc3cc(O)ccc3c12
  EC50: > 0.513 µM
  IC50: 0.0162 µM

## O=C(O)c1ccccc1C(=O)OC1CC2CC1C1OCC21 (configuration not stated)
  EC50: > 309 µM
  IC50: > 309 µM

## Nc1ncnc2c1ncn2C1CC(O)C(CO)(C(F)(F)F)O1 (configuration not stated)
  EC50: > 200 µM
  IC50: 61.7 µM

## CCCCCCCCN1CCCN(/N=C/c2c3c(O)c4c(O)c(C)c5c(c4c2O)C(=O)C(C)(O/C=C/C(OC)C(C)C(OC(C)=O)C(C)C(O)C(C)C(O)C(C)/C=C/C=C(C)C(=O)N3)O5)CC1 (configuration not stated)
  EC50: > 200 µM
  IC50: 7.24 µM

## Cc1nnc2sc(Cl)nn12
  EC50: > 200 µM
  IC50: 6.17 µM

## C1CSCCSCCSCCSC1
  EC50: > 38.9 µM
  IC50: > 38.9 µM

## Cc1nc2c(=S)n(C)ncc2[nH]1
  EC50: 30.9 µM
  IC50: > 100 µM

## O=C1OCCc2c1[nH]c1ccccc21
  EC50: > 363 µM
  IC50: 219 µM
